Patent US20260007681A1, “INDOLE DERIVATIVES AS ESTROGEN RECEPTOR DEGRADERS” (REGENTS OF THE UNIVERSITY OF MICHIGAN, priority 2022, published 2026)
Where a name gives a salt, the structure may show the parent alone. Read-outs that look alike come from different tables or passages of the source.

Columns and labels:
CRBN/DDB1 = CRBN/DDB1 (Homo sapiens (Human), UniProt Q96SW2); type: binding; settings: His tagged CRBN+DDB-DLS7+CXU4, Cy5-labeled Thalidomide probe, one hour incubation; read-out: CRBN HTRF IC50
Description: The binding potency was determined using H-TRF assay technology (Perkin Elmer). Compounds were serially diluted in DMSO and 0.2 μL volume was transferred to white 384-well plate.

ERα_LBD(GST) = ERα_LBD(GST) (Homo sapiens (Human), UniProt P03372); assay: IC50 measurements for binding to ERα_LBD (GST), LanthaScreen TR-FRET ERα competitive binding assay; settings: 4 nM ERα_LBD(GST), 3 nM Fluormone ES2 Green tracer, 60 min; read-out: ERα HTRF IC50
Description: • 1. ERα_LBD(GST) protein: 4 nM • 2. Tb Anti-GST: 2 nM • 3. Fluormone ES2 Green tracer: 3 nM • 4. Incubation time: 60 min • 5. DMSO: 1% • 6. Assay buffer: Adding 1M DTT to Nuclear receptor Buffer K for final 5 mM DTT. • 7. ZPE: 1% DMSO • 8. HPE: 1 μM ARV_471 • 9. LanthaScreen® TR-FRET ERα Competitive Binding Assay (ThermoFisher, #A15887)
• 1) Cherry pick 2 μL 10 mM compound stock to column 1 of a 384 intermediate plate • 2) Add 18 μL DMSO to column 1 to dilute compound to 1 mM. • 3) Transfer 10 μL 1 mM compound to column 1 of a LDV plate. • 4) Add 6 μl DMSO to column 2-10 of the LDV plate. • 5) Compounds undergo 3-fold serial dilution (3 μL+6 μL) in DMSO. • 6) Transfer 120 nL compound solution to assay plate. • ZPE: 120 nL 100% DMSO
Prepare complete nuclear receptor buffer K by adding 1 M DTT to nuclear receptor buffer K for a final concentration of 5 mM DTT. Complete nuclear receptor buffer K must be prepared fresh daily. Prepare 2X protein solution using complete nuclear receptor buffer K containing 8 nM ERα_LBD(GST) and 4 nM Tb Anti-GST. Then, prepare 2× Fluormone ES2 Green tracer (6 nM) using complete nuclear receptor buffer K. Add 6 μL 2× Fluormone ES2 green tracer into a compound plate (PerkinElmer 6008289) by dragonfly with one-tips-addition. Subsequently, add 6 μL 2× protein solution into the plate. Briefly and gently mix the 384-well plate on a plate shaker and incubate at room temperature protected from light for 60 min. The plate is sealed with a cover to minimize evaporation. Read the plate at wavelengths of 520 nm and 495 nm. Calculate the TR-FRET ratio by dividing the emission signal at 520 nm by the emission signal at 495 nm. Generate a binding curve by plotting the emission ratio vs. the log [ligand]. To determine the IC50 value, fit the data using XL-fit for a sigmoidal dose-response.

ER in MCF-7 cells = ER in MCF-7 cells (Homo sapiens (Human), UniProt P03372); assay: In-cell western (ICW) ER degradation assay in MCF-7 cells (Compounds A1-A70); type: cell-based; settings: for DC50: ER degradation, 0.02 to 300 nM, read-out: MCF7 ICW DC50; for MCF7 ICW Dmax (%): maximal ER degradation
ER in T47D cells = ER in T47D cells (Homo sapiens (Human), UniProt P03372); assay: In-cell western (ICW) ER degradation assay in T47D cells (Compounds A1-A70); type: cell-based; settings: for DC50: ER degradation, 0.02 to 300 nM; for Dmax: read-out: T47D ICW Dmax (%)
[1] = maximal ER degradation, T47D cells, 16 hrs treatment
[2] = MCF7, read-out: MCF7 ICW Dmax (%)
[3] = T47D, maximal ER degradation, T47D cells, 16 hrs treatment
[4] = MCF7, maximal ER degradation, MCF-7 cells, 16 hrs treatment, read-out: MCF7 ICW Dmax (%)

Chain of ER in T47D cells (P03372 whole entry): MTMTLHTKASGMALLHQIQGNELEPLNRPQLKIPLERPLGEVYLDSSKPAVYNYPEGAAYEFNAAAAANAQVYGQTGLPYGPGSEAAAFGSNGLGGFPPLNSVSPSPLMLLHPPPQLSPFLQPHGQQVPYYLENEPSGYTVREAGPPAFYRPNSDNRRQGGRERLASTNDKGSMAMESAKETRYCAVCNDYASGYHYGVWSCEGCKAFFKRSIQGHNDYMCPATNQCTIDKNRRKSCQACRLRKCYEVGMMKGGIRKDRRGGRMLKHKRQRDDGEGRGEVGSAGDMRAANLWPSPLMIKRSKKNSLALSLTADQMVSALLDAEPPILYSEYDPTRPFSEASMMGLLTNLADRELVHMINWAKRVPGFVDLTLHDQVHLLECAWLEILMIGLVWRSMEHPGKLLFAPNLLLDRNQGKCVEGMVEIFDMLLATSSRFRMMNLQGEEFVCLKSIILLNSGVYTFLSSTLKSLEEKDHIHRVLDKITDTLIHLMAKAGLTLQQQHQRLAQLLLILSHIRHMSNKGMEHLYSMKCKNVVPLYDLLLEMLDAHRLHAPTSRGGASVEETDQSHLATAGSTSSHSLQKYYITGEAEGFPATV
Chain of ER in MCF-7 cells (P03372 whole entry): as above
Chain of CRBN/DDB1 (Q96SW2 whole entry): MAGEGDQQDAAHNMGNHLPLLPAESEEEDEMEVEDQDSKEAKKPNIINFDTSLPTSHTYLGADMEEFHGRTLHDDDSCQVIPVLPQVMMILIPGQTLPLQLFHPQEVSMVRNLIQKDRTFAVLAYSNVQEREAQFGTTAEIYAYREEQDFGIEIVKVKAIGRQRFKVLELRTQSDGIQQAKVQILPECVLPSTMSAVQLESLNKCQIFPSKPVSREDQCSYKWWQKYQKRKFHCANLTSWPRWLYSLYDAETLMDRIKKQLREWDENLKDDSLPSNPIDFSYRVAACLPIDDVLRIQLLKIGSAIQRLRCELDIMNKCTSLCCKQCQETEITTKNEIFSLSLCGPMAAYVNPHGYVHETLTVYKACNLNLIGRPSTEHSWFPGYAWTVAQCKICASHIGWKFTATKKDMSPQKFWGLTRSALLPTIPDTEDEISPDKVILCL
Chain of CRBN/DDB1 (Q16531 whole entry partner): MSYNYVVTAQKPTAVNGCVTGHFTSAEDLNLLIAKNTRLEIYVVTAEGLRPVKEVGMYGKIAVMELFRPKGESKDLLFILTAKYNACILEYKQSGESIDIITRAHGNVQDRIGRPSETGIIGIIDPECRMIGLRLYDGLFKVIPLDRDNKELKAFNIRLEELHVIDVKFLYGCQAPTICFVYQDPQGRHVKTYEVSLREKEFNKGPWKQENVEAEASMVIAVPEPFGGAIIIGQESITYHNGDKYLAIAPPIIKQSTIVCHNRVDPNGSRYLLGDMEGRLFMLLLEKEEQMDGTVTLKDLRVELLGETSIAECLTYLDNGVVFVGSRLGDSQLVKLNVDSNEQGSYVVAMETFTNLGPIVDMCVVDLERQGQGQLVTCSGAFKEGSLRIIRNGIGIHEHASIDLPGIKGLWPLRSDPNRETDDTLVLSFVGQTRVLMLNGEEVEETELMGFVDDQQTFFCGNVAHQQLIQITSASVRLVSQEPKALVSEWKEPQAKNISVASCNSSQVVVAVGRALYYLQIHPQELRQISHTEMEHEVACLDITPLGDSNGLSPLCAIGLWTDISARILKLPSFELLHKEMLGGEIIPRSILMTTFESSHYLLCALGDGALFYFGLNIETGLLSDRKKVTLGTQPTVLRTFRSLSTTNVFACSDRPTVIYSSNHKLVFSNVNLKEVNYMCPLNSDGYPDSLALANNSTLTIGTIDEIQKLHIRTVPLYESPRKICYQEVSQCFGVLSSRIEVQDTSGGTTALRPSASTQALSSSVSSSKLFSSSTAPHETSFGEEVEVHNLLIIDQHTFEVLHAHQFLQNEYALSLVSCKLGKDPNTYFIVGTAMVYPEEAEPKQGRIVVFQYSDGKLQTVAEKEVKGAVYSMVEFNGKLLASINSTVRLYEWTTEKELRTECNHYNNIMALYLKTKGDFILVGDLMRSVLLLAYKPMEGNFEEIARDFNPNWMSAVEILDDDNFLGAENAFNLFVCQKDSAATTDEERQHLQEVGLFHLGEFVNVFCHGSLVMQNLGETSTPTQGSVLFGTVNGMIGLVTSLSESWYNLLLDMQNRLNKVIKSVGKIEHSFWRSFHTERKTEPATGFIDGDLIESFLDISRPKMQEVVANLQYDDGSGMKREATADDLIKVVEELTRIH
Chain of ERα_LBD(GST) (P03372 311-547): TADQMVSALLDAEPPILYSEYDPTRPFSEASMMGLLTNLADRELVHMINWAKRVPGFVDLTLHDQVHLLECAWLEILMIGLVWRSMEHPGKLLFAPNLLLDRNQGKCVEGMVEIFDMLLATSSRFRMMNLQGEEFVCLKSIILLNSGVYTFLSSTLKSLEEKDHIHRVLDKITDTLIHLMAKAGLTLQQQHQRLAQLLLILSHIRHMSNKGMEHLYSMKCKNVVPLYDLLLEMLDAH

SMILES | IC50 (CRBN/DDB1) [nM] | IC50 (ERα_LBD(GST)) [nM] | DC50 (ER in MCF-7 cells; MCF-7 cells, 16 hrs treatment) [nM] | MCF7 ICW Dmax (%) (ER in MCF-7 cells; MCF-7 cells, 16 hrs treatment) | DC50 (ER in T47D cells; T47D cells, 16 hrs treatment) [nM] | T47D ICW Dmax (%) (ER in T47D cells; [1]) | Dmax (ER in MCF-7 cells; [2]) [%] | Dmax (ER in T47D cells; [3]) [%] | Dmax (ER in MCF-7 cells; [4]) [%] | Dmax (ER in T47D cells; [1]) [%] | Dmax (ER in T47D cells; T47D) [%]
COc1cc(N2CCC(CN3CCN4c5cc6c(cc5OC[C@@H]4C3)C(=O)N([C@H]3CCC(=O)NC3=O)C6)CC2)ccc1[C@@H]1c2[nH]c3ccccc3c2C[C@@H](C)N1CC(F)F [Compound A28, (S)-3-((S)-3-((1-(4-((1R,3R)-2-(2,2-difluoroethyl)-3-methyl-2,3,4,9-tetrahydro-1H-pyrido[3,4-b]indol-1-yl)-3-methoxyphenyl)piperidin-4-yl)methyl)-8-oxo-1,2,3,4,4a,5,8,10-octahydro-9H-pyrazino[1′,2′:4,5][1,4]oxazino[2,3-f]isoindol-9-yl)piperidine-2,6-dione] | 50 to 500 | < 10 | < 1 | C (“C”: 25%-50%) | < 1 | B (“B”: >50% and <75%) |  |  |  |  | 
C[C@H]1Cc2c([nH]c3ccccc23)[C@H](c2cnc(N3CCC4(CC3)C[C@@H](CN3CCN5c6ccc7c(c6OC[C@@H]5C3)CN([C@@H]3CCC(=O)NC3=O)C7=O)CO4)nc2)N1CC(F)F [Compound A59, (R)-3-((S)-7-(((S)-8-(5-((1S,3S)-2-(2,2-difluoroethyl)-3-methyl-2,3,4,9-tetrahydro-1H-pyrido[3,4-b]indol-1-yl)pyrimidin-2-yl)-1-oxa-8-azaspiro[4.5]decan-3-yl)methyl)-1-oxo-1,3,5,5a,6,7,8,9-octahydro-2H-pyrazino[1′,2′:4,5][1,4]oxazino[2,3-e]isoindol-2-yl)piperidine-2,6-dione formate] |  | ≥ 10 | < 1 |  | < 1 |  | 50 to 75 | 50 to 75 |  |  | 
C[C@@H]1Cc2c([nH]c3ccccc23)[C@@H](c2cnc(N3CCC(CN4CCC5(CC4)COc4cc6c(cc45)CN(C4CCC(=O)NC4=O)C6=O)CC3)nc2)N1CC(F)(F)CO (stereo partly drawn) [Compound A36, 3-(1′-((1-(5-((1R,3R)-2-(2,2-difluoro-3-hydroxypropyl)-3-methyl-2,3,4,9-tetrahydro-1H-pyrido[3,4-b]indol-1-yl)pyrimidin-2-yl)piperidin-4-yl)methyl)-7-oxo-5,7-dihydro-2H,6H-spiro[furo[2,3-f]isoindole-3,4′-piperidin]-6-yl) piperidine-2,6-dione] | 50 to 500 | < 10 | 1 to 10 |  | < 1 |  |  |  | 25 to 50 | 50 to 75 | 
C[C@H]1Cc2c([nH]c3ccccc23)[C@H](c2cnc(N3CCC4(CC3)C[C@@H](CN3CCN5c6cc7c(cc6OC[C@H]5C3)C(=O)N([C@@H]3CCC(=O)NC3=O)C7)CO4)nc2)N1CC(F)F [Compound A61, (R)-3-((R)-3-(((S)-8-(5-((1S,3S)-2-(2,2-difluoroethyl)-3-methyl-2,3,4,9-tetrahydro-1H-pyrido[3,4-b]indol-1-yl)pyrimidin-2-yl)-1-oxa-8-azaspiro[4.5]decan-3-yl)methyl)-8-oxo-1,2,3,4,4a,5,8,10-octahydro-9H-pyrazino[1′,2′:4,5][1,4]oxazino[2,3-f]isoindol-9-yl)piperidine-2,6-dione] |  | ≥ 10 | < 1 |  | < 1 |  | 50 to 75 | 50 to 75 |  |  | 
C[C@@H]1Cc2c([nH]c3ccccc23)[C@@H](c2cnc(N3CCC4(CC3)C[C@@H](CN3CCC(c5ccc(N[C@@H]6CCC(=O)NC6=O)cc5)CC3)CO4)nc2)N1CC(F)F [Compound A70, (3R)-3-((4-(1-((8-(5-((1R,3R)-2-(2,2-difluoroethyl)-3-methyl-2,3,4,9-tetrahydro-1H-pyrido[3,4-b]indol-1-yl)pyrimidin-2-yl)-1-oxa-8-azaspiro[4.5]decan-3-yl)methyl)piperidin-4-yl)phenyl)amino)piperidine-2,6-dione] |  | < 10 | < 1 |  | < 1 |  |  | > 75 | 50 to 75 |  | 
COc1cc(N2CCC(CN3CCN4c5ccc6c(c5OC[C@@H]4C3)CN([C@H]3CCC(=O)NC3=O)C6=O)CC2)ccc1[C@@H]1c2[nH]c3ccccc3c2C[C@@H](C)N1CC(F)F [Compound A45, (S)-3-((S)-7-((1-(4-((1R,3R)-2-(2,2-difluoroethyl)-3-methyl-2,3,4,9-tetrahydro-1H-pyrido[3,4-b]indol-1-yl)-3-methoxyphenyl)piperidin-4-yl)methyl)-1-oxo-1,3,5,5a,6,7,8,9-octahydro-2H-pyrazino[1′,2′:4,5][1,4]oxazino[2,3-e]isoindol-2-yl)piperidine-2,6-dione] | > 5000 | < 10 | < 1 | A (“A”: >=75%) | < 1 |  |  | > 75 |  |  | 
COc1cc(N2CCC(CN3CCN4c5ccc6c(c5OC[C@H]4C3)CN([C@H]3CCC(=O)NC3=O)C6=O)CC2)ccc1[C@@H]1c2[nH]c3ccccc3c2C[C@@H](C)N1CC(C)(C)F [Compound A49, (S)-3-((R)-7-((1-(4-((1R,3R)-2-(2-fluoro-2-methylpropyl)-3-methyl-2,3,4,9-tetrahydro-1H-pyrido[3,4-b]indol-1-yl)-3-methoxyphenyl)piperidin-4-yl)methyl)-1-oxo-1,3,5,5a,6,7,8,9-octahydro-2H-pyrazino[1′,2′:4,5][1,4]oxazino[2,3-e]isoindol-2-yl)piperidine-2,6-dione] |  | ≥ 10 | < 1 |  | < 1 |  | > 75 |  |  |  | 50 to 75
COc1cc(N2CCC(CN3CCN4c5ccc6c(c5OC[C@H]4C3)CN([C@H]3CCC(=O)NC3=O)C6=O)CC2)ccc1[C@@H]1c2[nH]c3ccccc3c2C[C@@H](C)N1CC(F)F [Compound A19, (S)-3-((R)-7-((1-(4-((1R,3R)-2-(2,2-difluoroethyl)-3-methyl-2,3,4,9-tetrahydro-1H-pyrido[3,4-b]indol-1-yl)-3-methoxyphenyl)piperidin-4-yl)methyl)-1-oxo-1,3,5,5a,6,7,8,9-octahydro-2H-pyrazino[1′,2′:4,5][1,4]oxazino[2,3-c]isoindol-2-yl)piperidine-2,6-dione] | 50 to 500 | < 10 | 1 to 10 |  |  |  |  |  | 50 to 75 |  | 
COc1cc(N2CCC(CN3CCN(c4ccc(C(=O)N[C@H]5CCC(=O)NC5=O)nc4)CC3)CC2)ccc1[C@@H]1c2[nH]c3ccccc3c2C[C@@H](C)N1CC(F)F [Compound A55, 5-(4-((1-(4-((1R,3R)-2-(2,2-difluoroethyl)-3-methyl-2,3,4,9-tetrahydro-1H-pyrido[3,4-b]indol-1-yl)-3-methoxyphenyl)piperidin-4-yl)methyl)piperazin-1-yl)-N—((S)-2,6-dioxopiperidin-3-yl)picolinamide] | > 5000 | < 10 | < 1 |  |  |  |  |  |  |  | 
COc1cc(N2CCC(CN3CCN4c5ccc6c(c5OC[C@@H]4C3)CN([C@H]3CCC(=O)NC3=O)C6=O)CC2)ccc1[C@@H]1c2[nH]c3ccccc3c2C[C@@H](C)N1CC(F)F [Compound A12, (S)-3-((S)-7-((1-(4-((1R,3R)-2-(2,2-difluoroethyl)-3-methyl-2,3,4,9-tetrahydro-1H-pyrido[3,4-b]indol-1-yl)-3-methoxyphenyl)piperidin-4-yl)methyl)-1-oxo-1,3,5,5a,6,7,8,9-octahydro-2H-pyrazino[1′,2′:4,5][1,4]oxazino[2,3-e]isoindol-2-yl)piperidine-2,6-dione] |  | < 10 | < 1 | B (“B”: >50% and <75%) |  |  |  |  |  |  | 
